{
  "source": "patent US20150307573A1",
  "about": "“CYLINDRINS AS ETIOLOGIC AGENTS OF AMYLOID DISEASES” (The Regents of the University of California, priority 2012, published 2015)",
  "key": {"[1]": {"test_system": "HeLa, HEK293, PC-12 and SH-SY5Y cells"}, "polyclonal antibody A11": {"test_system": "polyclonal antibody A11", "assay": "Immuno-dot blot with oligomer-specific antibody A11", "type": "binding", "experimental": "(§1) Briefly, a small aliquot of cylindrin peptide samples, at a concentration of a few mg/mL, were spotted onto a nitrocellulose membrane (Trans-Blot, Bio-Rad, Hercules, Calif.). After blocking with 10% fat free milk in TBST buffer (50 mM Tris, 150 mM NaCl, 0.05% Tween20), the membranes were incubated with polyclonal antibody or monoclonal antibody (˜1:250 dilution in 5% fat free milk, TBST buffer) at room temperature for 1 hour. The membranes were washed three times in TBST buffer before incubating with anti-rabbit HRP-linked antibody (1:5000 dilution in 5% fat free milk, TBST buffer) (Invitrogen, Carlsbad, Calif.) at room temperature for 1 hour. After washing the membranes three times in TBST buffer, the films were developed following the protocol as described in the Kit (Thermo Scientific Pierce ECL Western Blotting Substrate, #32209). Positive controls for A11 and OC were prefibrillar oligomers and fibrils, respectively (14)."}, "OC antibody": {"test_system": "OC antibody", "assay": "Immuno-dot blot with fibril-specific antibodies OC", "type": "binding", "experimental": "as §1"}, "[2]": {"assay": "Membrane leakage (liposome calcein dye-release) experiments", "type": "biochemical", "settings": "for maximum leakage (calcein release): 5, 20, 50 μM peptide, up to 30 hours; for liposome integrity / dye release: FIG. 8", "experimental": "Calcein-containing LUVs were prepared as described previously (19), with minor modifications. 1-palmitoyl-2-oleoyl-sn-glycero-3-phosphocholine (POPC) and 1-palmitoyl-2-oleoyl-sn glycero-3-phospho-L-glycerol (POPG) were obtained from Avanti Polar Lipids (Alabaster, Ala.). Mixtures of POPC and POPG in a 7:3 molar ratio were dissolved in 1:1 chloroform:methanol. The solvent was evaporated under dry nitrogen gas to yield a lipid film that was further dried under vacuum for at least 24 hours to remove any residual organic solvent. The film was then hydrated in 70 mM calcein (Sigma Aldrich, St. Louis, Mo.) and 10 mM Tris-HCl (pH 7.4) at a lipid concentration of 5 mM. The suspensions were subjected to 10 freeze-thaw cycles of temperatures of −80 and 50° C., followed by extrusion through two 0.2 μm pore size filters (Whatman, Florham Park, N.J.). Non-encapsulated calcein was separated from calcein-filled LUVs by size exclusion using a Sephadex G-75 (GE Healthcare, Piscataway, N.J.) equilibrated in buffer (10 mM Tris-HCl pH 7.4, 100 mM sodium chloride). The calcein-containing LUVs were concentrated to 3-5 mM and stored at 4° C. Phospholipid content and concentrations of the LUVs were determined by RP-HPLC using 100% Methanol and 100 mM TEAC (tetraethylammonium chloride) pH 7.8 as the solvent and a C18 column. Diameter of LUVs were determined using a Microtrac UPA 150 (York, Pa.). […] LUVs were used for experiments within 5 days of preparation.\nPure, lyophilized K11V-TR and K11VV2L-TR peptides were solubilized in water. Three different stock solutions were made at concentrations of 0.2, 0.8, and 2 mM. 5 uL of each peptide stock solution was added to a well containing 195 uL of 7:3 calcein-containing POPC:POPG LUVs in a buffer (10 mM Tris-HCL pH 7.4, 100 mM sodium chloride). Dye leakage was measured using a SpectraMax5 (Molecular Devices, Sunnyvale, Calif.) at 485 nm excitation and a 535 nm emission. Measurements were taken every 10 minutes for 30 hours. Each well contains a final LUV concentration of 100 μM with final K11V-TR and K11VV2L-TR construct concentrations of 5, 20, and 50 μM. Synthetic human Islet Amyloid Polypeptide (hIAPP) residues 8-37, purchased from CS-Bio (Menlo Park, Calif.), was used as a positive control; since hIAPP has been previously shown to interact and disrupt membranes (15, 16). Lyophilized hIAPP was dissolved in 100% hexafluoro-2-propanol (HFIP) and put under vacuum to evaporate the HFIP. hIAPP was then reconstituted in water at 0.2 mM, filtered using a 0.2 μm filter, and added to six wells containing 100 μM Calcein-containing LUVs to a final concentration of 5 μM hIAPP. Fluorescence at a given time point was normalized as described previously (20), using the equation: Fnormalized=(Ft−Fmin)/(Fmax−Fmin) Ft is the measured fluorescence intensity, Fmin the fluorescence of 100 μM calcein-containing LUVs alone, and Fmax is the maximum fluorescence determined by incubation of 100 μM LUVs in the presence of 0.5% Triton X-100."}, "in vitro": {"assay": "in vitro", "settings": "human (HeLa, HEK293, SH-SY5Y); rat (PC-12)"}, "[3]": {"test_system": "Hela; ES derived motor neurons (GFP+)", "assay": "Toxicity assay of SOD1 cylindrins (MTT, visual inspection of GFP+ neuron morphologies)", "type": "cell-based"}, "[4]": {"target": "the molecule itself", "assay": "X-ray crystal structure; self-association of identical chains", "experimental": "The SOD1-derived peptide […] (SEQ ID NO:61) was crystallized and data collection was performed as follows: The peptide was crystallized via hanging-drop vapor diffusion at 18° C. The peptide was dissolved at 50 mg/mL in 50 mM Tris, then was mixed 1:1 with the reservoir solution: 0.2M Na Citrate pH 5, 13% PEG 6000. The peptide grew into needle-shaped crystals in 2-3 days. For data collection, hundreds of crystals were mounted because of their quick decay. However, two larger crystals were able to be used to collect complete data sets, by diffracting from several points along the length of the crystals. Diffraction from iodine-soaked crystals was used to obtain phases by SIRAS."}, "[5]": {"target": "the molecule itself", "assay": "native nanoelectrospray mass spectrometry; self-association of identical chains", "experimental": "The cylindrin peptide abbreviation (see Table 1) is labeled for the respective mass spectrum in the upper right corner of the inset. (A) Mass spectrum of cylindrin peptide, K11VV2L dissolved directly in 200 mM ammonium acetate buffer. Expansion of the hexameric oligomers with n-1 and n-2 dissociation products (see for review (13)), shown in inset. […] The n-1 (pentamer) and n-2 (tetramer) dissociated species are located under the respective label, corresponding to ions with +4 and +3 charge states, respectively. The 1231.76 ion corresponds to the K11VV2L peptide chain with a +1 charge state. (B) Native mass spectrum of K11V-TR purified by size exclusion chromatography (see methods for details). […] The labeled +2 and +6 charge state ions correspond to one and four peptide chains, respectively. […]\nOne to five milligrams of lyophilized peptide was dissolved in 1 mL of water and filtered through a 0.22 or 0.45 μm Centrex MF filter (Whatman, Florham Park, N.J.). […] Absorbance at 220 nm and 280 nm were recorded using a Waters 2487 dual λ absorbance detector (Waters, Milford, Mass.). Protein standards were monitored by absorbance at 280 nm, and cylindrin peptides monitored by absorbance at 220 nm."}},
  "note": "Read-outs that look alike come from different tables or passages of the source. Where no end group is shown, it is not given here.",
  "data": [
    {"molecule": "GDVIEV [G6V fibrils]", "values": [
      {"measurement": "toxicity of fibrils", "setting": "[1]; fibrils, in contrast to oligomeric solutions", "result": "no toxicity"}
    ]},
    {"molecule": "GKLKVLGDVIEVGGKLKVLGDVIEV [K11V-TR fibrils] (not fully specified)", "values": [
      {"measurement": "recognition by A11 antibody", "setting": "polyclonal antibody A11", "result": "recognized only by the OC antibody"},
      {"measurement": "recognition by OC antibody", "setting": "OC antibody", "result": "recognized only by the OC antibody"},
      {"measurement": "recognition by OC antibody", "setting": "OC antibody; listed as fibrils of K11V-TR", "result": "immunoreactive"}
    ]},
    {"molecule": "GKLKVLGDVIEVGGKLKVLGDVIEV [Peptide K11V-TR]", "values": [
      {"measurement": "maximum leakage (calcein release)", "setting": "[2]; 100 μM LUVs", "result": 10, "unit": "%"},
      {"measurement": "liposome integrity / dye release", "setting": "[2]", "result": "did not exhibit this trend"},
      {"measurement": "recognition by A11 antibody", "setting": "polyclonal antibody A11", "result": "recognized by A11"},
      {"measurement": "cell toxicity", "setting": "[1]; different peptide concentrations, HEK293, HeLa, PC12, SH-SY5Y, FIG. 7", "result": "concentration dependent cell toxicity"},
      {"measurement": "cell toxicity (cell viability)", "setting": "[1]; final concentration 100 μM, four mammalian cell lines, FIG. 1F", "result": "toxic"}
    ]},
    {"molecule": "GKVKVLGDVIEVGGKVKVLGDVIEV [K11V-TR (wild-type)]", "values": [
      {"measurement": "maximum leakage (calcein release)", "setting": "[2]; 100 μM LUVs", "result": 10, "unit": "%"}
    ]},
    {"molecule": "H-GKLKWLGDVIEVGGKLKWLGDVIEV-OH [Peptide K11VV4W-TR]", "values": [
      {"measurement": "viability at 24 h, 100 µM", "setting": "in vitro", "result": "~100", "unit": "%"}
    ]},
    {"molecule": "KLKVLGDVIEV [Peptide K11VV2L]", "values": [
      {"measurement": "recognition by A11 antibody", "setting": "polyclonal antibody A11", "result": "recognized by A11"}
    ]},
    {"molecule": "KVKVWGSIGKL [KVKVWGSIKGL]", "values": [
      {"measurement": "toxicity to cultured cells", "setting": "[3]; peptide (cylindrin)", "result": "toxic"},
      {"measurement": "toxicity to cultured cells", "setting": "[3]; peptide amyloid-like fibrils", "result": "non-toxic"}
    ]},
    {"molecule": "cylindrin: six-stranded anti-parallel barrel oligomer of K11V (KVKVLGDVIEV)", "values": [
      {"measurement": "recognition by A11 antibody", "setting": "polyclonal antibody A11", "result": "recognizes"}
    ]},
    {"molecule": "hIAPP8-37: Synthetic human Islet Amyloid Polypeptide residues 8-37, positive control (ATQRLANFLVHSSNNFGAILSSTNVGSNTY; ends and bridges not checked; UniProt P10997 41-70, looked up, fragment) [reference compound]", "values": [
      {"measurement": "leakage (calcein release)", "setting": "[2]; 5 μM positive control, 100 μM LUVs", "result": "up to 60%"},
      {"measurement": "liposome integrity / dye release", "setting": "[2]", "result": "clearly diminished liposome integrity leading to dye release"}
    ]},
    {"molecule": "KVKVWGSIKGL (Open-ended oligomer (corkscrew), 16 strands per turn, any number of peptide units; also called SOD1 cylindrin; kv11)", "note": "[SOD1-derived peptide KVKVWGSIKGL, SOD1(29-39) P29K]", "values": [
      {"measurement": "binding result", "setting": "[4]", "result": "binds"}
    ]},
    {"molecule": "KLKVLGDVIEV (Forms hexameric oligomers (native MS, crystal structure 3SGP); also called single segment; alphaB crystallin residues 90-100 mutant V91L)", "note": "[K11VV2L cylindrin peptide (KLKVLGDVIEV), oligomeric solution]", "values": [
      {"measurement": "binding result", "setting": "[5]", "result": "binds"}
    ]},
    {"molecule": "GKLKVLGDVIEVGGKLKVLGDVIEV (Trimer of 25-residue chains (SEC, native MS, crystal structure 3SGR); also called K11VV2L-TR; tandem repeat segment)", "note": "[K11V-TR tandem repeat cylindrin peptide (tandem repeat of K11VV2L), oligomeric solution]", "values": [
      {"measurement": "binding result", "setting": "[5]", "result": "binds"}
    ]}
  ]
}
